This note sets out measurements from patent publication US9284277B2, “Benzazepines as serotonin 5-HT2C receptor ligands and uses thereof” (ABT Holding Company, priority 2012, dated 2016).

Structures are written as SMILES.

One experiment addresses T1, human 5HT2c receptor (INI isoform) (Homo sapiens, UniProt P28335).
T1 sequence (P28335 33-458): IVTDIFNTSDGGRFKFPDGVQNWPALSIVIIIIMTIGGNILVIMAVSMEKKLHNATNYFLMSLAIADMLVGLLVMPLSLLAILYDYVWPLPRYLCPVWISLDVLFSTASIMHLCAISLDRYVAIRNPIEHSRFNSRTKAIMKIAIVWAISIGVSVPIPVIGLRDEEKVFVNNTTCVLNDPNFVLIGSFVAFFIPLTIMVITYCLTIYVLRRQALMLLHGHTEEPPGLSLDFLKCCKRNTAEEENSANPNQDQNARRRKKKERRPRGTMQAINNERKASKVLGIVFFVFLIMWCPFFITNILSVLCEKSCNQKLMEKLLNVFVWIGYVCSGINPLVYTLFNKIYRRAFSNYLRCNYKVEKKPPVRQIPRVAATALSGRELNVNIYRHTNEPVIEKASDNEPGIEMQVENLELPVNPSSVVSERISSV
The experiment can be described thus: Phosphotidyl Inositol Turnover Assay (IP-One Tb kit), agonist potency. It is filed as cell-based.
Details: not given
Consider `c1cc2c(c3c1CCC3)CCNCC2` [Example 1, 1,2,3,6,7,8,9,10-Octahydro-8-aza-cyclohepta[e]indene], for which the EC50 is less than 10 nM.
On the same count and under the same terms, the value for `CC1CCc2ccc3c(c21)CCNCC3` (stereo not shown) [Example 2, 1-Methyl-1,2,3,6,7,8,9,10-octahydro-8-aza-cyclohepta[e]indene] was less than 10 nM.
Same read-out and setting: next, `CCC1CCc2ccc3c(c21)CCNCC3` (stereo not shown) [Example 3, 1-Ethyl-1,2,3,6,7,8,9,10-octahydro-8-aza-cyclohepta[e]indene]: less than 10 nM; `CCCC1CCc2ccc3c(c21)CCNCC3` (stereo not shown) [Example 5, 1-Propyl-1,2,3,6,7,8,9,10-octahydro-8-aza-cyclohepta[e]indene]: less than 10 nM; `CCC1CCc2c(Cl)cc3c(c21)CCNCC3` (stereo not shown) [Example 6, 4-Chloro-1-ethyl-1,2,3,6,7,8,9,10-octahydro-8-aza-cyclohepta[e]indene]: less than 10 nM.
Same read-out and setting: the value for `CCC1CCc2c(I)cc3c(c21)CCNCC3` (stereo not shown) [Example 7, 1-Ethyl-4-iodo-1,2,3,6,7,8,9,10-octahydro-8-aza-cyclohepta[e]indene] was less than 10 nM; that for `CCC1CCc2c(F)cc3c(c21)CCNCC3` (stereo not shown) [Example 8, 1-Ethyl-4-fluoro-1,2,3,6,7,8,9,10-octahydro-8-aza-cyclohepta[e]indene] was less than 10 nM.
Turning to `Clc1cc2c(c3c1CCC3c1ccccc1)CCNCC2` (stereo not shown) [Example 10, 4-Chloro-1-phenyl-1,2,3,6,7,8,9,10-octahydro-8-aza-cyclohepta[e]indene], the EC50 was less than 10 nM.
For `CC1(C)CCc2ccc3c(c21)CCNCC3` [Example 13, 1,1-Dimethyl-1,2,3,6,7,8,9,10-octahydro-8-aza-cyclohepta[e]indene], the EC50 was less than 10 nM.
Still for that read-out and setting: next, `CCC1c2c(ccc3c2CCNCC3)CC1(F)F` (stereo not shown) [Example 31, 1-Ethyl-2,2-difluoro-1,2,3,6,7,8,9,10-octahydro-8-aza-cyclohepta[e]indene]: less than 10 nM.
The same measure, in the same setting: next, `CC1c2c(ccc3c2CCNCC3)CC1(F)F` (stereo not shown) [Example 32, 2,2-Difluoro-1-methyl-1,2,3,6,7,8,9,10-octahydro-8-aza-cyclohepta[e]indene]: less than 10 nM; `CC1(C)c2c(ccc3c2CCNCC3)CC1(F)F` [Example 34, 2,2-Difluoro-1,1-dimethyl-1,2,3,6,7,8,9,10-octahydro-8-aza-cyclohepta[e]indene]: less than 10 nM; `CC1(C)CCc2c(-c3ccccc3)cc3c(c21)CCNCC3` [Example 35, 1,1-Dimethyl-4-phenyl-1,2,3,6,7,8,9,10-octahydro-8-aza-cyclohepta[e]indene]: less than 1000 nM.
Same read-out and setting: the value for `CCC1COc2ccc3c(c21)CCNCC3` (stereo not shown) [Example 36, 1-Ethyl-1,2,7,8,9,10-hexahydro-6H-3-oxa-8-aza-cyclohepta[e]indene] was less than 10 nM; that for `CCC1CCOc2ccc3c(c21)CCNCC3` (stereo not shown) [Example 37, 1-Ethyl-2,3,8,9,10,11-hexahydro-1H,7H-4-oxa-9-aza-cyclohepta[a]naphthalene] was less than 10 nM.
As to `COC1c2c(ccc3c2CCNCC3)CC1(F)F` (stereo not shown) [Example 38, 2,2-Difluoro-1-methoxy-1,2,3,6,7,8,9,10-octahydro-8-aza-cyclohepta[e]indene], the EC50 was less than 10 nM.
The same measure, in the same setting: the value for `CCOC1c2c(ccc3c2CCNCC3)CC1(F)F` (stereo not shown) [Example 41, 1-Ethoxy-2,2-difluoro-1,2,3,6,7,8,9,10-octahydro-8-aza-cyclohepta[e]indene] was less than 10 nM.
Still for that read-out and setting: the value for `FC1(F)Cc2ccc3c(c2C1)CCNCC3` [Example 42, 2,2-Difluoro-1,2,3,6,7,8,9,10-octahydro-8-aza-cyclohepta[e]indene] was less than 10 nM.
On the same count and under the same terms, next, `COC1CCc2ccc3c(c21)CCNCC3` (stereo not shown) [Example 43, 1-Methoxy-1,2,3,6,7,8,9,10-octahydro-8-aza-cyclohepta[e]indene]: less than 10 nM.

Still in this experiment, the particulars now being: 5-HT2c PI turnover potency of the more active isomer (where applicable); HEK 293 EBNA cells expressing INI isoform of human 5HT2c receptor; read-out: Potency at 5HT2c (INI isoform).
Consider `c1cc2c(c3c1CCNCC3)C(C1CC1)CC2` (stereo not shown) [Example 4, 1-Cyclopropyl-1,2,3,6,7,8,9,10-octahydro-8-aza-cyclohepta[e]indene], for which the EC50 was less than 10 nM.
On to `c1ccc(C2CCc3ccc4c(c32)CCNCC4)cc1` (stereo not shown) [Example 9, 1-Phenyl-1,2,3,6,7,8,9,10-octahydro-8-aza-cyclohepta[e]indene], for which the EC50 was less than 10 nM.
The same measure, in the same setting: next, `c1cncc(C2CCc3ccc4c(c32)CCNCC4)c1` (stereo not shown) [Example 11, 1-Pyridin-3-yl-1,2,3,6,7,8,9,10-octahydro-8-aza-cyclohepta[e]indene]: less than 10 nM.
On the same count and under the same terms, next, `Fc1cc2c(c3c1CCC3c1cccnc1)CCNCC2` (stereo not shown) [Example 12, 4-Fluoro-1-pyridin-3-yl-1,2,3,6,7,8,9,10-octahydro-8-aza-cyclohepta[e]indene]: less than 10 nM.
The same measure, in the same setting: next, `FC1(F)Cc2ccc3c(c2C1c1ccccc1)CCNCC3` (stereo not shown) [Example 14, 2,2-Difluoro-1-phenyl-1,2,3,6,7,8,9,10-octahydro-8-aza-cyclohepta[e]indene]: less than 10 nM; `Cc1ccccc1C1c2c(ccc3c2CCNCC3)CC1(F)F` (stereo not shown) [Example 15, 2,2-Difluoro-1-o-tolyl-1,2,3,6,7,8,9,10-octahydro-8-aza-cyclohepta[e]indene]: less than 10 nM; `Cc1cccc(C2c3c(ccc4c3CCNCC4)CC2(F)F)c1` (stereo not shown) [Example 16, 2,2-Difluoro-1-m-tolyl-1,2,3,6,7,8,9,10-octahydro-8-aza-cyclohepta[e]indene]: less than 10 nM.
With `Cc1ccc(C2c3c(ccc4c3CCNCC4)CC2(F)F)cc1` (stereo not shown) [Example 17, 2,2-Difluoro-1-p-tolyl-1,2,3,6,7,8,9,10-octahydro-8-aza-cyclohepta[e]indene], the EC50 is less than 100 nM.
Consider `FC(F)(F)c1cccc(C2c3c(ccc4c3CCNCC4)CC2(F)F)c1` (stereo not shown) [Example 18, 2,2-Difluoro-1-(3-trifluoromethyl-phenyl)-1,2,3,6,7,8,9,10-octahydro-8-aza-cyclohepta[e]indene], for which the EC50 is less than 10 nM.
The same measure, in the same setting: the value for `FC(F)(F)Oc1cccc(C2c3c(ccc4c3CCNCC4)CC2(F)F)c1` (stereo not shown) [Example 19, 2,2-Difluoro-1-(3-trifluoromethoxy-phenyl)-1,2,3,6,7,8,9,10-octahydro-8-aza-cyclohepta[e]indene] was less than 10 nM; that for `Fc1ccc(C2c3c(ccc4c3CCNCC4)CC2(F)F)cc1` (stereo not shown) [Example 20, 2,2-Difluoro-1-(4-fluoro-phenyl)-1,2,3,6,7,8,9,10-octahydro-8-aza-cyclohepta[e]indene] was less than 10 nM.
The same measure, in the same setting: the value for `Fc1cccc(C2c3c(ccc4c3CCNCC4)CC2(F)F)c1` (stereo not shown) [Example 21, 2,2-Difluoro-1-(3-fluoro-phenyl)-1,2,3,6,7,8,9,10-octahydro-8-aza-cyclohepta[e]indene] was less than 10 nM; that for `FC1(F)Cc2ccc3c(c2C1C1CC1)CCNCC3` (stereo not shown) [Example 22, 1-Cyclopropyl-2,2-difluoro-1,2,3,6,7,8,9,10-octahydro-8-aza-cyclohepta[e]indene] was less than 10 nM.
Consider `FC1(F)Cc2ccc3c(c2C1c1cccc(Cl)c1)CCNCC3` (stereo not shown) [Example 23, 1-(3-Chloro-phenyl)-2,2-difluoro-1,2,3,6,7,8,9,10-octahydro-8-aza-cyclohepta[e]indene], for which the EC50 is less than 10 nM.
For `FC1(F)Cc2ccc3c(c2C1c1ccc(Cl)cc1)CCNCC3` (stereo not shown) [Example 24, 1-(4-Chloro-phenyl)-2,2-difluoro-1,2,3,6,7,8,9,10-octahydro-8-aza-cyclohepta[e]indene], the EC50 is less than 10 nM.
As for `COc1ccccc1C1c2c(ccc3c2CCNCC3)CC1(F)F` (stereo not shown) [Example 25, 2,2-Difluoro-1-(2-methoxy-phenyl)-1,2,3,6,7,8,9,10-octahydro-8-aza-cyclohepta[e]indene], the EC50 was less than 10 nM.
Still for that read-out and setting: the value for `COc1cccc(C2c3c(ccc4c3CCNCC4)CC2(F)F)c1` (stereo not shown) [Example 26, 2,2-Difluoro-1-(3-methoxy-phenyl)-1,2,3,6,7,8,9,10-octahydro-8-aza-cyclohepta[e]indene] was less than 10 nM; that for `COc1ccc(C2c3c(ccc4c3CCNCC4)CC2(F)F)cc1` (stereo not shown) [Example 27, 2,2-Difluoro-1-(4-methoxy-phenyl)-1,2,3,6,7,8,9,10-octahydro-8-aza-cyclohepta[e]indene] was less than 100 nM; that for `FC1(F)Cc2ccc3c(c2C1c1cccnc1)CCNCC3` (stereo not shown) [Example 28, 2,2-Difluoro-1-pyridin-3-yl-1,2,3,6,7,8,9,10-octahydro-8-aza-cyclohepta[e]indene] was less than 10 nM.
Regarding `FC1(F)Cc2ccc3c(c2C1c1ccncc1)CCNCC3` (stereo not shown) [Example 29, 2,2-Difluoro-1-pyridin-4-yl-1,2,3,6,7,8,9,10-octahydro-8-aza-cyclohepta[e]indene], the EC50 was less than 1000 nM.
Consider `FC1(F)Cc2c(Cl)cc3c(c2C1c1cccnc1)CCNCC3` (stereo not shown) [Example 30, 4-Chloro-2,2-difluoro-1-pyridin-3-yl-1,2,3,6,7,8,9,10-octahydro-8-aza-cyclohepta[e]indene], for which the EC50 was less than 10 nM.
With `FC1(F)Cc2ccc3c(c2C1Cc1ccccc1)CCNCC3` (stereo not shown) [Example 33, 1-Benzyl-2,2-difluoro-1,2,3,6,7,8,9,10-octahydro-8-aza-cyclohepta[e]indene], the EC50 was less than 10 nM.
`c1ccc(-c2coc3ccc4c(c23)CCNCC4)cc1` [Example 39, 1-Phenyl-7,8,9,10-tetrahydro-6H-3-oxa-8-aza-cyclohepta[e]indene]: the EC50 is less than 10 nM.
Turning to `c1csc(C2CCc3ccc4c(c32)CCNCC4)n1` (stereo not shown) [Example 40, 1-Thiazol-2-yl-1,2,3,6,7,8,9,10-octahydro-8-aza-cyclohepta[e]indene], the EC50 is less than 10 nM.
